Source: patent US8937038B2, “Composition containing peptide ligand that bonds with CXCR2 for treating infective and inflammatory diseases” (priority 2010, dated 2015)

Experiments:
[1] = tested on: bacteria in peritoneal fluids of CLP mice; assay: In vivo disinfection activity: bacterial colonies in peritoneal fluid after CLP; set-up: species or system mouse; reference not given here; settings: 24 hours after the CLP; FIG. 10
Method: A peritoneal lavage fluid was collected 24 hours after CLP, and incubated at 37° C. overnight in a blood agar base plate (trypticase soy agar Deeps, Becton Dickinson). The number of colony forming units (CFUs) was counted according to a method disclosed in Yan J J et al. 2004 Nat. Med. 10:161-167.
A death rate by CLP is correlated with the number of bacterial colonies in a peritoneal fluid. Therefore, an effect of the Ac-PGP on removal of bacteria in a peritoneal fluid was examined. […] In vitro disinfection activity of the Ac-PGP was examined using neutrophils derived from a mouse. The mouse neutrophils were kept for an hour to phagocytize E. coli, and then stimulated with various concentrations of Ac-PGP (0.1 to 100 nM) for 20 minutes. […] A reactive oxygen species such as hydrogen peroxide was known as an important molecule participating in the disinfection activity. Therefore, an effect of Ac-PGP on production of hydrogen peroxide in the mouse neutrophils was examined. […] To examine a role of CXCR2 in production of hydrogen peroxide by the Ac-PGP, the mouse neutrophils were pretreated with a CXCR2 antagonist (SB225002) before they were treated with the Ac-PGP.

mouse neutrophils = assay: Disinfection activity of mouse neutrophils phagocytizing E. coli; type: cell-based; settings: Ac-PGP 0.1 to 100 nM for 20 minutes, FIG. 11
Method: Mouse neutrophils were separated from peripheral blood using a Histopaque-1077 solution (Sigma) (Bae Y S et al. 2001 Blood. 97: 2854-2862). The neutrophils separated from normal mice were stimulated with various concentrations of Ac-PGP for 10 minutes in the presence of cytochalasin B (5 μM). To identify the role of mCXCR2, the neutrophils were pre-incubated in various concentrations of SB225002 or a vehicle (DMSO) for 30 minutes in a stationary environment, and Ac-PGP (20 μM) was added, and incubated for 10 minutes. H2O2 in a supernatant was measured using a H2O2 measurement kit (Molecular probe).
The disinfection activities of the neutrophils were measured according to a method disclosed by Yan et al. (Yan J J et al. 2004 Nat. Med. 10:161-167). The neutrophils were stationarily incubated at 37° C. for an hour on a 13 mm plastic cover slip in a 60 mm plastic culture dish. The non-attached cells were removed by PBS. The attached neutrophils were stationarily incubated for an hour with 10^6 opsonized E. coli cells. The non-phagocytized E. coli cells were washed, and the number of bacteria surviving in the neutrophils was determined before and after the E. coli cells were treated with various concentrations of Ac-PGP or vehicle for an hour. A percentage of the apoptosized bacteria was calculated as follows. […]

human neutrophils = assay: Disinfection activity of human neutrophils against opsonized E. coli; type: cell-based; settings: FIG. 27
Excerpt: (§1) All kinds of protocols used in human beings were approved by the Institutional Review Board (IRB) at Dong-A University Hospital, and prior consents were obtained from all blood donors. Peripheral blood was collected from healthy donors, and human peripheral monocytes were separated using a Histopaque-1077 gradient. Neutrophils were separated through methods such as dextran precipitation of red blood cell, hypotonic lysis, and usage of lymphocyte isolation medium gradient, as known in the related art (Bae, Y. S. et al. Blood 97, 2854-2862(2001)). The separated human leukocytes were used immediately.
The disinfection activities of the neutrophils were measured according to a method disclosed by Yan et al. (Yan J J et al. 2004 Nat. Med. 10:161-167). The neutrophils were stationarily incubated at 37° C. for an hour on a 13 mm plastic cover slip in a 60 mm plastic culture dish. The non-attached cells were removed by PBS. The attached neutrophils were stationarily incubated for an hour with 10^6 opsonized E. coli cells. The non-phagocytized E. coli cells were washed, and the number of bacteria surviving in the neutrophils was determined before and after the E. coli cells were treated with various concentrations of Ac-PGP or vehicle for an hour. A percentage of the apoptosized bacteria was calculated as follows. 100×(1−CFU Number after stimulus with Ac-PGP/CFU Number before stimulus with Ac-PGP)
Since Ac-PGP strongly promoted the disinfection activity of the mouse neutrophils, a bacteriocidal effect of the Ac-PGP on human neutrophils was examined.

PBMCs = assay: Cytokine production by LPS-stimulated human PBMCs; type: cell-based; settings: human PBMCs stimulated with LPS
Excerpt: as §1
Next, an effect of the Ac-PGP on production of cytokines by human neutrophils and PBMCs was examined. […] A human CXCR2 chemokine agonist CXCL8 had few effects on production of TNF-α or IFN-γ stimulated with LPS (FIG. 28 to FIG. 31). Therefore, the Ac-PGP could improve both antiseptic activities in leukocytes derived from human beings and mice.

acetylated-Pro-Gly-Pro [Ac-PGP]
number of bacterial colonies in the peritoneal fluid [1]: 82.1%
disinfection activity (mouse neutrophils): highly increased the disinfection activity in a dose-dependent manner
killing of opsonified E. coli (human neutrophils; 20 nM): almost completely killed opsonified E. coli
disinfection activity (human neutrophils; 100 nM): remarkably improved the disinfection activity
bacterial killing by the human neutrophils (human neutrophils; various concentrations): dose-dependent effect on bacterial killing
production of TNF-α (PBMCs; FIG. 29): remarkably suppressed
production of IFN-γ (PBMCs; FIG. 31): remarkably improved
